{
  "source": "patent EP1561465A2",
  "about": "“Methods of use of fluoroquinolone compounds against bacteria” (LG Life Sciences, Ltd., priority 1999, dated 2001)",
  "assay_in_all_cases": "MIC by NCCLS reference broth microdilution, 450 respiratory tract pathogens",
  "assay_type_in_all_cases": "cell-based",
  "key": {"Streptococcus pneumoniae": {"system": "Streptococcus pneumoniae", "settings": "Streptococcus pneumoniae"}, "Streptococcus pyogenes": {"system": "Streptococcus pyogenes", "settings": "Streptococcus pyogenes"}, "Haemophilus influenzae": {"system": "Haemophilus influenzae"}, "Moraxella catarrhalis": {"system": "Moraxella catarrhalis"}, "Staphylococcus aureus": {"system": "Staphylococcus aureus"}, "Klebsiella pneumoniae": {"system": "Klebsiella pneumoniae", "settings": "for MIC50 / MIC90: Klebsiella pneumoniae"}, "[1]": {"settings": "Streptococcus pneumoniae (n = 100)"}, "[2]": {"settings": "erythromycin resistant M phenotype (n = 16)"}, "[3]": {"settings": "erythromycin resistant MLSB phenotype (n = 16)"}, "[4]": {"settings": "penicillin intermediate (n = 16)"}, "[5]": {"settings": "penicillin susceptible (n = 20)"}, "[6]": {"settings": "Streptococcus pyogenes (n = 100)"}, "[7]": {"settings": "erythromycin resistant C phenotype [MLSB] (n = 20)"}, "[8]": {"settings": "erythromycin resistant I phenotype [MLSB] (n = 20)"}, "[9]": {"settings": "erythromycin resistant M phenotype (n = 20)"}, "[10]": {"settings": "Haemophilus influenzae, Haemophilus influenzae (n = 100)"}, "[11]": {"settings": "Haemophilus influenzae, β-lactamase negative (n = 80)"}, "[12]": {"settings": "Haemophilus influenzae, β-lactamase positive (n = 20)"}, "[13]": {"settings": "β-lactamase positive and erythromycin resistant (n = 10)"}, "[14]": {"settings": "extended spectrum β-lactamase negative (n = 30)"}, "[15]": {"settings": "extended spectrum β-lactamase positive (n = 20)"}},
  "note": "Like-named read-outs stand apart in the source and are kept apart here.",
  "data": [
    {"molecule": "NC1CCN(c2c(F)cc3c(=O)c(C(=O)O)cn(C4CC4)c3c2Cl)C1", "note": "(stereo not shown) [Clinafloxacin, clinafloxacin]", "values": [
      {"measurement": "MIC", "setting": "Streptococcus pneumoniae; [1]", "result": "0.03 to 0.25", "unit": "µg/mL"},
      {"measurement": "MIC50", "setting": "Streptococcus pneumoniae; [1]", "result": 0.06, "unit": "µg/mL"},
      {"measurement": "MIC90", "setting": "Streptococcus pneumoniae; [1]", "result": 0.12, "unit": "µg/mL"},
      {"measurement": "MIC", "setting": "Streptococcus pneumoniae; [2]", "result": "0.03 to 0.12", "unit": "µg/mL"},
      {"measurement": "MIC50", "setting": "Streptococcus pneumoniae; [2]", "result": 0.06, "unit": "µg/mL"},
      {"measurement": "MIC90", "setting": "Streptococcus pneumoniae; [2]", "result": 0.12, "unit": "µg/mL"},
      {"measurement": "MIC", "setting": "Streptococcus pneumoniae; [3]", "result": "0.03 to 0.12", "unit": "µg/mL"},
      {"measurement": "MIC50", "setting": "Streptococcus pneumoniae; [3]", "result": 0.06, "unit": "µg/mL"},
      {"measurement": "MIC90", "setting": "Streptococcus pneumoniae; [3]", "result": 0.12, "unit": "µg/mL"},
      {"measurement": "MIC", "setting": "Streptococcus pneumoniae; multi-drug resistant (n = 16)", "result": "0.06 to 0.12", "unit": "µg/mL"},
      {"measurement": "MIC50", "setting": "Streptococcus pneumoniae; multi-drug resistant (n = 16)", "result": 0.12, "unit": "µg/mL"},
      {"measurement": "MIC90", "setting": "Streptococcus pneumoniae; multi-drug resistant (n = 16)", "result": 0.12, "unit": "µg/mL"},
      {"measurement": "MIC", "setting": "Streptococcus pneumoniae; [4]", "result": "0.06 to 0.12", "unit": "µg/mL"},
      {"measurement": "MIC50", "setting": "Streptococcus pneumoniae; [4]", "result": 0.12, "unit": "µg/mL"},
      {"measurement": "MIC90", "setting": "Streptococcus pneumoniae; [4]", "result": 0.12, "unit": "µg/mL"},
      {"measurement": "MIC", "setting": "Streptococcus pneumoniae; penicillin resistant (n = 18)", "result": "0.06 to 0.25", "unit": "µg/mL"},
      {"measurement": "MIC50", "setting": "Streptococcus pneumoniae; penicillin resistant (n = 18)", "result": 0.12, "unit": "µg/mL"},
      {"measurement": "MIC90", "setting": "Streptococcus pneumoniae; penicillin resistant (n = 18)", "result": 0.25, "unit": "µg/mL"},
      {"measurement": "MIC", "setting": "Streptococcus pneumoniae; [5]", "result": "0.015 to 0.12", "unit": "µg/mL"},
      {"measurement": "MIC50", "setting": "Streptococcus pneumoniae; [5]", "result": 0.06, "unit": "µg/mL"},
      {"measurement": "MIC90", "setting": "Streptococcus pneumoniae; [5]", "result": 0.12, "unit": "µg/mL"},
      {"measurement": "MIC", "setting": "Streptococcus pyogenes; [6]", "result": "0.015 to 0.12", "unit": "µg/mL"},
      {"measurement": "MIC50", "setting": "Streptococcus pyogenes; [6]", "result": 0.06, "unit": "µg/mL"},
      {"measurement": "MIC90", "setting": "Streptococcus pyogenes; [6]", "result": 0.06, "unit": "µg/mL"},
      {"measurement": "MIC", "setting": "Streptococcus pyogenes; [7]", "result": "0.03 to 0.12", "unit": "µg/mL"},
      {"measurement": "MIC50", "setting": "Streptococcus pyogenes; [7]", "result": 0.06, "unit": "µg/mL"},
      {"measurement": "MIC90", "setting": "Streptococcus pyogenes; [7]", "result": 0.12, "unit": "µg/mL"},
      {"measurement": "MIC", "setting": "Streptococcus pyogenes; [8]", "result": "0.03 to 0.06", "unit": "µg/mL"},
      {"measurement": "MIC50", "setting": "Streptococcus pyogenes; [8]", "result": 0.06, "unit": "µg/mL"},
      {"measurement": "MIC90", "setting": "Streptococcus pyogenes; [8]", "result": 0.06, "unit": "µg/mL"},
      {"measurement": "MIC", "setting": "Streptococcus pyogenes; [9]", "result": "0.015 to 0.06", "unit": "µg/mL"},
      {"measurement": "MIC50", "setting": "Streptococcus pyogenes; [9]", "result": 0.03, "unit": "µg/mL"},
      {"measurement": "MIC90", "setting": "Streptococcus pyogenes; [9]", "result": 0.06, "unit": "µg/mL"},
      {"measurement": "MIC", "setting": "Streptococcus pyogenes; fully susceptible (n = 20)", "result": "0.03 to 0.12", "unit": "µg/mL"},
      {"measurement": "MIC50", "setting": "Streptococcus pyogenes; fully susceptible (n = 20)", "result": 0.03, "unit": "µg/mL"},
      {"measurement": "MIC90", "setting": "Streptococcus pyogenes; fully susceptible (n = 20)", "result": 0.06, "unit": "µg/mL"},
      {"measurement": "MIC", "setting": "Streptococcus pyogenes; multi-drug resistant (n = 20)", "result": "0.03 to 0.06", "unit": "µg/mL"},
      {"measurement": "MIC50", "setting": "Streptococcus pyogenes; multi-drug resistant (n = 20)", "result": 0.03, "unit": "µg/mL"},
      {"measurement": "MIC90", "setting": "Streptococcus pyogenes; multi-drug resistant (n = 20)", "result": 0.06, "unit": "µg/mL"},
      {"measurement": "MIC90", "setting": "Haemophilus influenzae; Haemophilus influenzae (n = 100)", "result": "≤0.00075", "unit": "µg/mL"},
      {"measurement": "MIC", "setting": "Haemophilus influenzae; [10]", "result": "0.0075 to 0.06", "unit": "µg/mL"},
      {"measurement": "MIC50", "setting": "Haemophilus influenzae; [10]", "result": "≤ 0.00075", "unit": "µg/mL"},
      {"measurement": "MIC90", "setting": "Haemophilus influenzae; Haemophilus influenzae, Haemophilus influenzae (n = 100), read-out: MIC90", "result": "≤ 0.00075", "unit": "µg/mL"},
      {"measurement": "MIC", "setting": "Haemophilus influenzae; [11]", "result": "0.0075 to 0.06", "unit": "µg/mL"},
      {"measurement": "MIC50", "setting": "Haemophilus influenzae; [11]", "result": "≤ 0.0075", "unit": "µg/mL"},
      {"measurement": "MIC90", "setting": "Haemophilus influenzae; Haemophilus influenzae, β-lactamase negative (n = 80), read-out: MIC90", "result": "≤ 0.0075", "unit": "µg/mL"},
      {"measurement": "MIC", "setting": "Haemophilus influenzae; [12]", "result": "0.0075 to 0.25", "unit": "µg/mL"},
      {"measurement": "MIC50", "setting": "Haemophilus influenzae; [12]", "result": "≤ 0.0075", "unit": "µg/mL"},
      {"measurement": "MIC90", "setting": "Haemophilus influenzae; Haemophilus influenzae, β-lactamase positive (n = 20), read-out: MIC90", "result": "≤ 0.0075", "unit": "µg/mL"},
      {"measurement": "MIC", "setting": "Moraxella catarrhalis; Moraxella catarrhalis (n = 50)", "result": "0.00375 to 0.015", "unit": "µg/mL"},
      {"measurement": "MIC50", "setting": "Moraxella catarrhalis; Moraxella catarrhalis (n = 50)", "result": "≤ 0.00375", "unit": "µg/mL"},
      {"measurement": "MIC90", "setting": "Moraxella catarrhalis; Moraxella catarrhalis (n = 50)", "result": 0.015, "unit": "µg/mL"},
      {"measurement": "MIC", "setting": "Moraxella catarrhalis; β-lactamase negative (n = 13)", "result": "0.00375 to 0.015", "unit": "µg/mL"},
      {"measurement": "MIC50", "setting": "Moraxella catarrhalis; β-lactamase negative (n = 13)", "result": "≤ 0.00375", "unit": "µg/mL"},
      {"measurement": "MIC90", "setting": "Moraxella catarrhalis; β-lactamase negative (n = 13)", "result": 0.015, "unit": "µg/mL"},
      {"measurement": "MIC", "setting": "Moraxella catarrhalis; β-lactamase positive (n = 37)", "result": "0.00375 to 0.015", "unit": "µg/mL"},
      {"measurement": "MIC50", "setting": "Moraxella catarrhalis; β-lactamase positive (n = 37)", "result": "≤ 0.00375", "unit": "µg/mL"},
      {"measurement": "MIC90", "setting": "Moraxella catarrhalis; β-lactamase positive (n = 37)", "result": 0.015, "unit": "µg/mL"},
      {"measurement": "MIC", "setting": "Staphylococcus aureus; Staphylococcus aureus (n = 50)", "result": "0.06 to 0.25", "unit": "µg/mL"},
      {"measurement": "MIC50", "setting": "Staphylococcus aureus; Staphylococcus aureus (n = 50)", "result": 0.12, "unit": "µg/mL"},
      {"measurement": "MIC90", "setting": "Staphylococcus aureus; Staphylococcus aureus (n = 50)", "result": 0.25, "unit": "µg/mL"},
      {"measurement": "MIC", "setting": "Staphylococcus aureus; β-lactamase negative (n = 20)", "result": "0.06 to 0.25", "unit": "µg/mL"},
      {"measurement": "MIC50", "setting": "Staphylococcus aureus; β-lactamase negative (n = 20)", "result": 0.12, "unit": "µg/mL"},
      {"measurement": "MIC90", "setting": "Staphylococcus aureus; β-lactamase negative (n = 20)", "result": 0.25, "unit": "µg/mL"},
      {"measurement": "MIC", "setting": "Staphylococcus aureus; β-lactamase positive (n = 20)", "result": "0.06 to 0.25", "unit": "µg/mL"},
      {"measurement": "MIC50", "setting": "Staphylococcus aureus; β-lactamase positive (n = 20)", "result": 0.12, "unit": "µg/mL"},
      {"measurement": "MIC90", "setting": "Staphylococcus aureus; β-lactamase positive (n = 20)", "result": 0.25, "unit": "µg/mL"},
      {"measurement": "MIC", "setting": "Staphylococcus aureus; [13]", "result": "0.06 to 0.25", "unit": "µg/mL"},
      {"measurement": "MIC50", "setting": "Staphylococcus aureus; [13]", "result": 0.12, "unit": "µg/mL"},
      {"measurement": "MIC90", "setting": "Staphylococcus aureus; [13]", "result": 0.25, "unit": "µg/mL"},
      {"measurement": "MIC Range", "setting": "Klebsiella pneumoniae; Klebsiella pneumoniae (n = 50)", "result": "≤0.0075 to 1", "unit": "µg/mL"},
      {"measurement": "MIC50", "setting": "Klebsiella pneumoniae; Klebsiella pneumoniae (n = 50)", "result": 0.015, "unit": "µg/mL"},
      {"measurement": "MIC90", "setting": "Klebsiella pneumoniae; Klebsiella pneumoniae (n = 50)", "result": 1, "unit": "µg/mL"},
      {"measurement": "MIC50", "setting": "Klebsiella pneumoniae; [14]", "result": "≤ 0.0075", "unit": "µg/mL"},
      {"measurement": "MIC90", "setting": "Klebsiella pneumoniae; [14]", "result": 0.015, "unit": "µg/mL"},
      {"measurement": "MIC50", "setting": "Klebsiella pneumoniae; [15]", "result": "≤ 0.0075", "unit": "µg/mL"},
      {"measurement": "MIC90", "setting": "Klebsiella pneumoniae; [15]", "result": 1, "unit": "µg/mL"},
      {"measurement": "MIC Range", "setting": "Klebsiella pneumoniae; [14]", "result": "≤0.0075 to 0.12", "unit": "µg/mL"},
      {"measurement": "MIC Range", "setting": "Klebsiella pneumoniae; [15]", "result": "≤0.0075 to 1", "unit": "µg/mL"}
    ]}
  ]
}
